The source of these data is the OligoGym collection.

HELM strings list units from the 5' end as sugar, base in round brackets, then linkage (d deoxyribose, r ribose, m 2'-O-methyl, p phosphodiester). Strings are as the collection lists them; they lack the last nucleoside at the 3' end of the tested compound. [moe] = 2'-O-(2-methoxyethyl) (MOE); [sp] = phosphorothioate linkage; [m5C] = 5-methylcytosine

For the data set, the target named is ATXN2. The data set can be described thus: mouse, dose not given. As to conditions: ASO.
“RNA1{[moe](T)[sp].[moe](T)p.[moe](A)p.[moe](G)p.[moe](A)[sp].d(G)[sp].d(T)[sp].d(T)[sp].d(T)[sp].d(T)[sp].d(T)[sp].d(G)[sp].d([m5C])[sp].[moe]([m5C])p.[moe](T)p.[moe](T)[sp].[moe]([m5C])}$$$$ (last 3' nucleoside missing)”: the 3 h FOB score was 5.5 score 0-7.
The value for “RNA1{[moe](T)[sp].[moe](T)p.[moe](A)p.[moe](G)p.[moe](A)p.d(G)[sp].d(T)[sp].d(T)[sp].d(T)[sp].d(T)[sp].d(T)[sp].d(G)[sp].d([m5C])[sp].d([m5C])[sp].d(T)[sp].[moe](T)p.[moe]([m5C])p.[moe]([m5C])[sp].[moe](A)}$$$$ (last 3' nucleoside missing)” was 3.5 score 0-7.
The same measure for “RNA1{[moe](T)[sp].[moe](T)p.[moe](A)p.[moe](G)p.[moe](G)p.d([m5C])[sp].d(T)[sp].d(A)[sp].d(G)[sp].d(G)[sp].d([m5C])[sp].d(A)[sp].d([m5C])[sp].d(A)[sp].d(T)[sp].[moe](G)p.[moe](G)p.[moe](A)[sp].[moe](G)}$$$$ (last 3' nucleoside missing)”: 5.25 score 0-7; for “RNA1{[moe](T)[sp].[moe](T)p.[moe](A)p.[moe](G)p.[moe]([m5C])p.d(T)[sp].d([m5C])[sp].d(A)[sp].d(T)[sp].d([m5C])[sp].d(A)[sp].d(A)[sp].d(G)[sp].d(G)[sp].d(T)[sp].[moe](A)p.[moe]([m5C])p.[moe]([m5C])[sp].[moe](A)}$$$$ (last 3' nucleoside missing)”: 3.75 score 0-7.
“RNA1{[moe](T)[sp].[moe](T)p.[moe](A)p.[moe]([m5C])p.[moe](T)[sp].d(G)[sp].d(T)[sp].d(T)[sp].d(T)[sp].d([m5C])[sp].d(G)[sp].d(A)[sp].d([m5C])[sp].[moe]([m5C])p.[moe](T)p.[moe]([m5C])[sp].[moe](T)}$$$$ (last 3' nucleoside missing)” returned a 3 h FOB score of 6 score 0-7.
On to “RNA1{[moe](T)[sp].[moe](T)p.[moe](A)p.[moe]([m5C])p.[moe](T)p.d(G)[sp].d(T)[sp].d(T)[sp].d(T)[sp].d([m5C])[sp].d(G)[sp].d(A)[sp].d([m5C])[sp].d([m5C])[sp].d(T)[sp].[moe]([m5C])p.[moe](T)p.[moe](G)[sp].[moe](A)}$$$$ (last 3' nucleoside missing)”, for which the 3 h FOB score stood at 4.5 score 0-7.
The same measure for “RNA1{[moe](T)[sp].[moe](T)p.[moe](A)p.[moe]([m5C])p.[moe](T)p.d(T)[sp].d([m5C])[sp].d(T)[sp].d(T)[sp].d(T)[sp].d(T)[sp].d(G)[sp].d([m5C])[sp].d(T)[sp].d(A)[sp].[moe](G)p.[moe]([m5C])p.[moe](T)[sp].[moe](G)}$$$$ (last 3' nucleoside missing)”: 1 score 0-7.
The value for “RNA1{[moe](T)[sp].[moe](T)p.[moe](G)p.[moe](A)p.[moe](A)p.d(T)[sp].d(T)[sp].d(A)[sp].d([m5C])[sp].d(A)[sp].d(A)[sp].d(T)[sp].d(G)[sp].d([m5C])[sp].d(G)[sp].[moe](G)p.[moe](T)p.[moe](A)[sp].[moe](T)}$$$$ (last 3' nucleoside missing)” was 4 score 0-7; that for “RNA1{[moe](T)[sp].[moe](T)p.[moe](G)p.[moe](T)p.[moe](A)p.d([m5C])[sp].d(T)[sp].d(T)[sp].d([m5C])[sp].d(A)[sp].d([m5C])[sp].d(A)[sp].d(T)[sp].d(T)[sp].d(T)[sp].[moe](G)p.[moe](G)p.[moe](A)[sp].[moe](G)}$$$$ (last 3' nucleoside missing)” was 3.75 score 0-7.
In turn, “RNA1{[moe](T)[sp].[moe](T)p.[moe](G)p.[moe](T)p.[moe](T)p.d(A)[sp].d([m5C])[sp].d(T)[sp].d(G)[sp].d(T)[sp].d(T)[sp].d(T)[sp].d([m5C])[sp].d(G)[sp].d(A)[sp].[moe]([m5C])p.[moe]([m5C])p.[moe](T)[sp].[moe]([m5C])}$$$$ (last 3' nucleoside missing)” came in with a 3 h FOB score of 4.25 score 0-7.
The value for “RNA1{[moe](T)[sp].[moe](T)p.[moe](G)p.[moe](T)p.[moe](T)p.d([m5C])[sp].d(T)[sp].d(T)[sp].d([m5C])[sp].d([m5C])[sp].d(A)[sp].d(A)[sp].d(T)[sp].d(T)[sp].d(T)[sp].[moe]([m5C])p.[moe](A)p.[moe](G)[sp].[moe](A)}$$$$ (last 3' nucleoside missing)” was 0 score 0-7.
The same measure for “RNA1{[moe](T)[sp].[moe](T)p.[moe](G)p.[moe]([m5C])p.[moe](A)p.d([m5C])[sp].d(A)[sp].d(T)[sp].d(A)[sp].d(G)[sp].d(G)[sp].d(T)[sp].d(T)[sp].d(A)[sp].d(G)[sp].[moe](A)p.[moe](A)p.[moe](T)[sp].[moe](T)}$$$$ (last 3' nucleoside missing)”: 6.5 score 0-7; for “RNA1{[moe](T)[sp].[moe](T)p.[moe](T)p.[moe](G)p.[moe](A)p.d(A)[sp].d(T)[sp].d(T)[sp].d(A)[sp].d([m5C])[sp].d(A)[sp].d(A)[sp].d(T)[sp].d(G)[sp].d([m5C])[sp].[moe](G)p.[moe](G)p.[moe](T)[sp].[moe](A)}$$$$ (last 3' nucleoside missing)”: 3.5 score 0-7.
The same measure for “RNA1{[moe](T)[sp].[moe](T)p.[moe](T)p.[moe](G)p.[moe](T)p.d(T)[sp].d(A)[sp].d([m5C])[sp].d(T)[sp].d(G)[sp].d(T)[sp].d(T)[sp].d(T)[sp].d([m5C])[sp].d(G)[sp].[moe](A)p.[moe]([m5C])p.[moe]([m5C])[sp].[moe](T)}$$$$ (last 3' nucleoside missing)”: 5 score 0-7; for “RNA1{[moe](T)[sp].[moe](T)p.[moe](T)p.[moe](G)p.[moe]([m5C])p.d(T)[sp].d(T)[sp].d(A)[sp].d(T)[sp].d(T)[sp].d(A)[sp].d(T)[sp].d(T)[sp].d([m5C])[sp].d(T)[sp].[moe]([m5C])p.[moe](A)p.[moe]([m5C])[sp].[moe](A)}$$$$ (last 3' nucleoside missing)”: 0 score 0-7; for “RNA1{[moe](T)[sp].[moe](T)p.[moe](T)p.[moe](T)p.[moe](G)p.d(A)[sp].d(A)[sp].d(T)[sp].d(T)[sp].d(A)[sp].d([m5C])[sp].d(A)[sp].d(A)[sp].d(T)[sp].d(G)[sp].[moe]([m5C])p.[moe](G)p.[moe](G)[sp].[moe](T)}$$$$ (last 3' nucleoside missing)”: 2 score 0-7.
With “RNA1{[moe](T)[sp].[moe](T)p.[moe](T)p.[moe](T)p.[moe](G)p.d([m5C])[sp].d(T)[sp].d(T)[sp].d(A)[sp].d(T)[sp].d(T)[sp].d(A)[sp].d(T)[sp].d(T)[sp].d([m5C])[sp].[moe](T)p.[moe]([m5C])p.[moe](A)[sp].[moe]([m5C])}$$$$ (last 3' nucleoside missing)”, the 3 h FOB score came to 0 score 0-7.
“RNA1{[moe](T)[sp].[moe](T)p.[moe](T)p.[moe](T)p.[moe](T)p.d(G)[sp].d([m5C])[sp].d(T)[sp].d(T)[sp].d(A)[sp].d(T)[sp].d(T)[sp].d(A)[sp].d(T)[sp].d(T)[sp].[moe]([m5C])p.[moe](T)p.[moe]([m5C])[sp].[moe](A)}$$$$ (last 3' nucleoside missing)”: the 3 h FOB score is 0 score 0-7.
In turn, “RNA1{[moe](T)[sp].[moe](T)p.[moe](T)p.[moe](T)p.[moe]([m5C])[sp].d(T)[sp].d([m5C])[sp].d(A)[sp].d(T)[sp].d(G)[sp].d(T)[sp].d(G)[sp].d([m5C])[sp].[moe](G)p.[moe](G)p.[moe]([m5C])[sp].[moe](A)}$$$$ (last 3' nucleoside missing)” showed a 3 h FOB score of 5.5 score 0-7.
The value for “RNA1{[moe](T)[sp].[moe](T)p.[moe](T)p.[moe](T)p.[moe]([m5C])p.d(T)[sp].d([m5C])[sp].d(A)[sp].d(T)[sp].d(G)[sp].d(T)[sp].d(G)[sp].d([m5C])[sp].d(G)[sp].d(G)[sp].[moe]([m5C])p.[moe](A)p.[moe](T)[sp].[moe]([m5C])}$$$$ (last 3' nucleoside missing)” was 5 score 0-7.
The same measure for “RNA1{[moe](T)[sp].[moe](T)p.[moe](T)p.[moe]([m5C])p.[moe](T)p.d([m5C])[sp].d(A)[sp].d(T)[sp].d(G)[sp].d(T)[sp].d(G)[sp].d([m5C])[sp].d(G)[sp].d(G)[sp].d([m5C])[sp].[moe](A)p.[moe](T)p.[moe]([m5C])[sp].[moe](A)}$$$$ (last 3' nucleoside missing)”: 6 score 0-7; for “RNA1{[moe](T)[sp].[moe](T)p.[moe]([m5C])p.[moe](T)[sp].[moe]([m5C])[sp].d(T)[sp].d(A)[sp].d(T)[sp].d(T)[sp].d(T)[sp].d([m5C])[sp].d(T)[sp].d(T)[sp].d(T)[sp].d(G)[sp].[moe](T)p.[moe]([m5C])p.[moe]([m5C])[sp].[moe](A)}$$$$ (last 3' nucleoside missing)”: 4 score 0-7.
The value for “RNA1{[moe](T)[sp].[moe](T)p.[moe]([m5C])p.[moe](T)p.[moe](G)[sp].d(T)[sp].d(A)[sp].d([m5C])[sp].d(T)[sp].d(T)[sp].d(T)[sp].d(T)[sp].d([m5C])[sp].[moe](T)p.[moe]([m5C])p.[moe](A)[sp].[moe](T)}$$$$ (last 3' nucleoside missing)” was 2.5 score 0-7; that for “RNA1{[moe](T)[sp].[moe](T)p.[moe]([m5C])p.[moe](T)p.[moe](G)[sp].d([m5C])[sp].d(T)[sp].d(A)[sp].d(A)[sp].d([m5C])[sp].d(T)[sp].d(G)[sp].d(G)[sp].[moe](T)p.[moe](T)p.[moe](T)[sp].[moe](G)}$$$$ (last 3' nucleoside missing)” was 1.75 score 0-7.
The substance “RNA1{[moe](T)[sp].[moe](T)p.[moe]([m5C])p.[moe](T)p.[moe](G)p.d(T)[sp].d(A)[sp].d([m5C])[sp].d(T)[sp].d(T)[sp].d(T)[sp].d(T)[sp].d([m5C])[sp].d(T)[sp].d([m5C])[sp].[moe](A)p.[moe](T)p.[moe](G)[sp].[moe](T)}$$$$ (last 3' nucleoside missing)” registered a 3 h FOB score of 4.5 score 0-7.
The same measure for “RNA1{[moe](T)[sp].[moe](T)p.[moe]([m5C])p.[moe](T)p.[moe](G)p.d([m5C])[sp].d(T)[sp].d(A)[sp].d(A)[sp].d([m5C])[sp].d(T)[sp].d(G)[sp].d(G)[sp].d(T)[sp].d(T)[sp].[moe](T)p.[moe](G)p.[moe]([m5C])[sp].[moe]([m5C])}$$$$ (last 3' nucleoside missing)”: 2 score 0-7.
